Laboratory results from ChEMBL document CHEMBL5344443, “Manzamine-A Alters In Vitro Calvarial Osteoclast Function” (J Nat Prod, 2024).
The source made the active and inactive calls.

Key:
Assay type in all cases: functional, cell-based
RAW264.7 [1] = assay: Downregulation of Six1 mRNA expression in mouse differentiated RAW 264.7 osteoclasts cells at 120 uM incubated for 24 hrs by qRT-PCR analysis
RAW264.7 [2] = assay: Induction of apoptosis in mouse differentiated RAW 264.7 osteoclast cells at 1.6 uM incubated for 72 hrs by Caspase 3/7 assay
RAW264.7 [3] = assay: Antiproliferative activity against mouse differentiated RAW 264.7 osteoclast cells assessed as reduction in cell viability incubated for 48 hrs by MTS viability assay; conditions: RAW264.7, 48 h
RAW264.7 [4] = assay: Disruption of differentiated mouse RAW 264.7 osteoclast assessed as loss of osteoclast at 47 uM incubated for 48 hrs by TRAP staining
RAW264.7 [5] = assay: Disruption of differentiated mouse RAW 264.7 osteoclast assessed as loss of osteoclast at 1.6 uM incubated for 24 hrs by TRAP staining
RAW264.7 [6] = assay: Induction of apoptosis in mouse differentiated RAW 264.7 osteoclast cells at 1.6 uM incubated for 48 hrs by Caspase 3/7 assay
RAW264.7 [7] = assay: Disruption of differentiated mouse RAW 264.7 osteoclast assessed as reduction in cell density at 47 uM incubated for 24 hrs by TRAP staining
RAW264.7 [8] = assay: Downregulation of Six1 mRNA expression in mouse RAW 264.7 preosteoclasts at 2.5 uM incubated for 48 hrs by qRT-PCR analysis
RAW264.7 [9] = assay: Disruption of differentiated mouse RAW 264.7 osteoclast assessed as reduction in cell density at 1.6 uM incubated for 24 hrs by TRAP staining
RAW264.7 [10] = assay: Induction of apoptosis in mouse differentiated RAW 264.7 osteoclast cells at 47 uM incubated for 72 hrs by Caspase 3/7 assay
RAW264.7 [11] = assay: Disruption of differentiated mouse RAW 264.7 osteoclast assessed as loss of osteoclast at 120 uM incubated for 24 hrs by TRAP staining
RAW264.7 [12] = assay: Downregulation of Six1 mRNA expression in mouse differentiated RAW 264.7 osteoclasts cells at 120 uM incubated for 48 hrs by qRT-PCR analysis
RAW264.7 [13] = assay: Disruption of differentiated mouse RAW 264.7 osteoclast assessed as loss of osteoclast at 120 uM incubated for 48 hrs by TRAP staining
RAW264.7 [14] = assay: Disruption of differentiated mouse RAW 264.7 osteoclast assessed as loss of osteoclast at 1.6 uM incubated for 72 hrs by TRAP staining
RAW264.7 [15] = assay: Antiproliferative activity against mouse RAW 264.7 preosteoclast cells assessed as reduction in cell viability incubated for 48 hrs by MTS viability assay; conditions: RAW264.7, 48 h
RAW264.7 [16] = assay: Induction of apoptosis in mouse differentiated RAW 264.7 osteoclast cells at 120 uM incubated for 72 hrs by Caspase 3/7 assay
RAW264.7 [17] = assay: Antiproliferative activity against mouse RAW 264.7 preosteoclast cells assessed as reduction in cell viability incubated for 24 hrs by MTS viability assay; conditions: RAW264.7, 24 h
RAW264.7 [18] = assay: Disruption of differentiated mouse RAW 264.7 osteoclast assessed as loss of osteoclast at 1.6 uM incubated for 48 hrs by TRAP staining
RAW264.7 [19] = assay: Antiproliferative activity against mouse RAW 264.7 preosteoclast cells assessed as reduction in cell viability incubated for 72 hrs by MTS viability assay; conditions: RAW264.7, 72 h
RAW264.7 [20] = assay: Disruption of differentiated mouse RAW 264.7 osteoclast assessed as reduction in cell density at 1.6 uM incubated for 48 hrs by TRAP staining
RAW264.7 [21] = assay: Antiproliferative activity against mouse differentiated RAW 264.7 osteoclast cells assessed as reduction in cell viability incubated for 24 hrs by MTS viability assay; conditions: RAW264.7, 24 h
RAW264.7 [22] = assay: Downregulation of Six1 mRNA expression in mouse differentiated RAW 264.7 osteoclasts cells at 47 uM incubated for 48 hrs by qRT-PCR analysis
RAW264.7 [23] = assay: Induction of apoptosis in mouse differentiated RAW 264.7 osteoclast cells at 120 uM incubated for 48 hrs by Caspase 3/7 assay
RAW264.7 [24] = assay: Induction of apoptosis in mouse RAW 264.7 preosteoclast cells at 2.5 uM incubated for 72 hrs by Caspase 3/7 assay
RAW264.7 [25] = assay: Antiproliferative activity against mouse differentiated RAW 264.7 osteoclast cells assessed as reduction in cell viability incubated for 72 hrs by MTS viability assay; conditions: RAW264.7, 72 h
RAW264.7 [26] = assay: Downregulation of Six1 mRNA expression in mouse RAW 264.7 preosteoclasts at 2.5 uM incubated for 24 hrs by qRT-PCR analysis
RAW264.7 [27] = assay: Disruption of differentiated mouse RAW 264.7 osteoclast assessed as reduction in cell density at 47 uM incubated for 72 hrs by TRAP staining
RAW264.7 [28] = assay: Disruption of differentiated mouse RAW 264.7 osteoclast assessed as reduction in cell density at 120 uM incubated for 48 hrs by TRAP staining
RAW264.7 [29] = assay: Disruption of differentiated mouse RAW 264.7 osteoclast assessed as reduction in cell density at 120 uM incubated for 72 hrs by TRAP staining
RAW264.7 [30] = assay: Disruption of differentiated mouse RAW 264.7 osteoclast assessed as loss of osteoclast at 47 uM incubated for 72 hrs by TRAP staining
RAW264.7 [31] = assay: Induction of apoptosis in mouse differentiated RAW 264.7 osteoclast cells at 120 uM incubated for 24 hrs by Caspase 3/7 assay
RAW264.7 [32] = assay: Disruption of differentiated mouse RAW 264.7 osteoclast assessed as loss of osteoclast at 120 uM incubated for 72 hrs by TRAP staining
RAW264.7 [33] = assay: Induction of apoptosis in mouse differentiated RAW 264.7 osteoclast cells at 1.6 uM incubated for 24 hrs by Caspase 3/7 assay
RAW264.7 [34] = assay: Disruption of differentiated mouse RAW 264.7 osteoclast assessed as reduction in cell density at 120 uM incubated for 24 hrs by TRAP staining
RAW264.7 [35] = assay: Disruption of differentiated mouse RAW 264.7 osteoclast assessed as reduction in cell density at 47 uM incubated for 48 hrs by TRAP staining
RAW264.7 [36] = assay: Induction of apoptosis in mouse RAW 264.7 preosteoclast cells at 2.5 uM incubated for 24 hrs by Caspase 3/7 assay
RAW264.7 [37] = assay: Disruption of differentiated mouse RAW 264.7 osteoclast assessed as loss of osteoclast at 47 uM incubated for 24 hrs by TRAP staining
RAW264.7 [38] = assay: Disruption of differentiated mouse RAW 264.7 osteoclast assessed as reduction in cell density at 1.6 uM incubated for 72 hrs by TRAP staining
RAW264.7 [39] = assay: Downregulation of Six1 mRNA expression in mouse differentiated RAW 264.7 osteoclasts cells at 47 uM incubated for 24 hrs by qRT-PCR analysis
RAW264.7 [40] = assay: Induction of apoptosis in mouse differentiated RAW 264.7 osteoclast cells at 47 uM incubated for 24 hrs by Caspase 3/7 assay

O[C@]12C=C(c3nccc4c3[nH]c3ccccc34)[C@@H]3CCN(CCCC/C=C\CC1)C[C@@]31C[C@@H]3/C=C\CCCCN3[C@H]12 [MANZAMINE A]
inactive: Activity (RAW264.7 [2]) | Activity (RAW264.7 [5]) | Activity (RAW264.7 [9]) | Activity (RAW264.7 [10]) | Activity (RAW264.7 [16]) | Activity (RAW264.7 [23]) | Activity (RAW264.7 [24])
47000 nM: IC50 (RAW264.7 [25])
1900 nM: IC50 (RAW264.7 [19])
120000 nM: IC50 (RAW264.7 [3])
2200 nM: IC50 (RAW264.7 [15])
1600 nM: IC50 (RAW264.7 [21])
active: Activity (RAW264.7 [1]) | Activity (RAW264.7 [4]) | Activity (RAW264.7 [6]) | Activity (RAW264.7 [7]) | Activity (RAW264.7 [8]) | Activity (RAW264.7 [11]) | Activity (RAW264.7 [12]) | Activity (RAW264.7 [13]) | Activity (RAW264.7 [14]) | Activity (RAW264.7 [18]) | Activity (RAW264.7 [20]) | Activity (RAW264.7 [22]) | Activity (RAW264.7 [26]) | Activity (RAW264.7 [27]) | Activity (RAW264.7 [28]) | Activity (RAW264.7 [29]) | Activity (RAW264.7 [30]) | Activity (RAW264.7 [31]) | Activity (RAW264.7 [32]) | Activity (RAW264.7 [33]) | Activity (RAW264.7 [34]) | Activity (RAW264.7 [35]) | Activity (RAW264.7 [36]) | Activity (RAW264.7 [37]) | Activity (RAW264.7 [38]) | Activity (RAW264.7 [39]) | Activity (RAW264.7 [40])
2500 nM: IC50 (RAW264.7 [17])
